# Source: patent US20230203043A1, “NOVEL IMIDAZOPYRAZINE DERIVATIVES” (Hoffmann-La Roche Inc., priority 2020, published 2023)
# Structures can show the parent of a compound that is named as a salt.
# Test system: Acinetobacter baumannii ATCC17961
# Assay: Antimicrobial susceptibility testing: 90% growth inhibitory concentration (IC90) determination in Iso-Sensitest broth, OD600 growth
# Type: cell-based
# Settings: Acinetobacter baumannii, ATCC17961, 16 h, read-out: A. baumannii ATCC 17961 IC90 (uM), strain ATCC 17961, OD600 growth over 16 h
# Outline: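 Growth monitored at 600 nm every 20 min for 16 h at 35±2 °C, inoculum ~5×10^(5) CFU/ml in Iso-Sensitest medium. Compounds in 10-point twofold series, e.g. 50 to 0.097 μM final; 90% inhibitory concentration taken from log-phase growth.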
row,Compound,IC90
1,"CCc1cc(Nc2nccn3c(-c4cn(CC#N)nc4-c4ccccc4)cnc23)ccc1C(=O)NCCOCCN [Example 781, N-[2-(2-aminoethoxy)ethyl]-4-[[3-[1-(cyanomethyl)-3-phenyl-pyrazol-4-yl]imidazo[1,2-a]pyrazin-8-yl]amino]-2-ethyl-benzamide formate]",1.09 µM
2,"CCc1cc(Nc2nccn3c(-c4cn(CC#N)nc4C(F)(F)F)cnc23)ccc1C(=O)N[C@H](C)C(=O)NC1CC(N)C1 (stereo partly drawn) [Example 790, N-[(1R)-2-[(3-aminocyclobutyl)amino]-1-methyl-2-oxo-ethyl]-4-[[3-[1-(cyanomethyl)-3-(trifluoromethyl)pyrazol-4-yl]imidazo[1,2-a]pyrazin-8-yl]amino]-2-ethyl-benzamide formate]",1.64 µM
3,"CCc1cc(Nc2nccn3c(-c4cn(CC#N)nc4C(F)(F)F)cnc23)ccc1C(=O)NCCCNC(=O)[C@H](C)N [Example 794, (S)-N-(3-(2-aminopropanamido)propyl)-4-((3-(1-(cyanomethyl)-3-(trifluoromethyl)-1H-pyrazol-4-yl)imidazo[1,2-a]pyrazin-8-yl)amino)-2-ethylbenzamide formate]",2.2 µM
4,"CCc1cc(Nc2nccn3c(-c4cn(CC#N)nc4C(F)(F)F)cnc23)ccc1C(=O)NCCCNC(=O)CN [Example 802, N-(3-(2-aminoacetamido)propyl)-4-((3-(1-(cyanomethyl)-3-(trifluoromethyl)-1H-pyrazol-4-yl)imidazo[1,2-a]pyrazin-8-yl)amino)-2-ethylbenzamide formate]",3.54 µM
5,"CCc1cc(Nc2nccn3c(-c4cn(CC#N)nc4C(F)(F)F)cnc23)ccc1C(=O)N[C@H](C)C(=O)N[C@@H]1CCNC1 [Example 803, 4-[[3-[1-(cyanomethyl)-3-(trifluoromethyl)pyrazol-4-yl]imidazo[1,2-a]pyrazin-8-yl]amino]-2-ethyl-N-[(1R)-1-methyl-2-oxo-2-[[(3R)-pyrrolidin-3-yl]amino]ethyl]benzamide formate]",3.77 µM

# Same assay, conditions: Acinetobacter baumannii, ATCC17961, 16 h, strain ATCC 17961, OD600 growth over 16 h, read-out: A. baumannii ATCC 17961 IC90
row,IC90,Compound
1,1.02 µM,"CCc1cc(Nc2nccn3c(-c4cn(CC(F)F)nc4C(F)F)cnc23)ccc1C(=O)N1CCN(C(=O)[C@@H](C)N)CC1 [Example 777, (R)-2-amino-1-(4-(4-((3-(1-(2,2-difluoroethyl)-3-(difluoromethyl)-1H-pyrazol-4-yl)imidazo[1,2-a]pyrazin-8-yl)amino)-2-ethylbenzoyl)piperazin-1-yl)propan-1-one]"
2,1.03 µM,"CCc1cc(Nc2nccn3c(-c4cn(COC)nc4C(F)F)cnc23)ccc1C(=O)N1CCN(C(=O)[C@@H](C)N)CC1 [Example 778, (R)-2-amino-1-(4-(4-((3-(3-(difluoromethyl)-1-(methoxymethyl)-1H-pyrazol-4-yl)imidazo[1,2-a]pyrazin-8-yl)amino)-2-ethylbenzoyl)piperazin-1-yl)propan-1-one]"
3,1.03 µM,"CCc1cc(Nc2nccn3c(-c4cn(CCF)nc4C(F)F)cnc23)ccc1C(=O)N1CCN(C(=O)[C@H](C)N)CC1 [Example 779, (S)-2-amino-1-(4-(4-((3-(3-(difluoromethyl)-1-(2-fluoroethyl)-1H-pyrazol-4-yl)imidazo[1,2-a]pyrazin-8-yl)amino)-2-ethylbenzoyl)piperazin-1-yl)propan-1-one]"
4,1.06 µM,"Cc1cc(Nc2nccn3c(-c4cn(CC#N)nc4C(F)(F)F)cnc23)ccc1C(=O)NCC(=O)N[C@H]1CCNC1 [Example 780, 4-[[3-[1-(cyanomethyl)-3-(trifluoromethyl)pyrazol-4-yl]imidazo[1,2-a]pyrazin-8-yl]amino]-2-methyl-N-[2-oxo-2-[[(3S)-pyrrolidin-3-yl]amino]ethyl] benzamide formate]"
5,1.15 µM,"CCc1cc(Nc2nccn3c(-c4c[nH]nc4C(F)(F)F)cnc23)ccc1C(=O)N[C@H](C)CNC(=O)[C@@H]1C[C@@H](O)CN1 [Example 782, (2S,4R)-N-((R)-2-(2-ethyl-4-((3-(3-(trifluoromethyl)-1H-pyrazol-4-yl)imidazo[1,2-a]pyrazin-8-yl)amino)benzamido)propyl)-4-hydroxypyrrolidine-2-carboxamide]"
6,1.21 µM,"C#CCNCCCCNC(=O)c1c(C)cc(Nc2nccn3c(-c4c[nH]nc4C(F)(F)F)cnc23)cc1F [Example 783, 2-fluoro-6-methyl-N-(4-(prop-2-yn-1-ylamino)butyl)-4-((3-(3-(trifluoromethyl)-1H-pyrazol-4-yl)imidazo[1,2-a]pyrazin-8-yl)amino)benzamide]"
7,1.32 µM,"C#CCn1cc(-c2cnc3c(Nc4ccc(C(=O)N5CCN(C(=O)[C@@H]6C[C@@H](O)CN6)CC5)c(CC)c4)nccn23)c(C(F)F)n1 [Example 785, (4-(4-((3-(3-(difluoromethyl)-1-(prop-2-yn-1-yl)-1H-pyrazol-4-yl)imidazo[1,2-a]pyrazin-8-yl)amino)-2-ethylbenzoyl)piperazin-1-yl)((2S,4R)-4-hydroxypyrrolidin-2-yl)methanone]"
8,1.43 µM,"CCc1cc(Nc2nccn3c(-c4cn(CC(F)F)nc4C(F)F)cnc23)ccc1C(=O)N1CCN(C(=O)[C@@H]2C[C@@H](O)CN2)CC1 [Example 786, (4-(4-((3-(1-(2,2-difluoroethyl)-3-(difluoromethyl)-1H-pyrazol-4-yl)imidazo[1,2-a]pyrazin-8-yl)amino)-2-ethylbenzoyl)piperazin-1-yl)((2S,4R)-4-hydroxypyrrolidin-2-yl)methanone]"
9,1.6 µM,"CCc1cc(Nc2nccn3c(-c4cn(CCF)nc4C(F)F)cnc23)ccc1C(=O)N1CCN(C(=O)CN)CC1 [Example 788, 2-amino-1-(4-(4-((3-(3-(difluoromethyl)-1-(2-fluoroethyl)-1H-pyrazol-4-yl)imidazo[1,2-a]pyrazin-8-yl)amino)-2-ethylbenzoyl)piperazin-1-yl)ethan-1-one]"
10,1.61 µM,"CCc1cc(Nc2nccn3c(-c4cn(CC(N)=O)nc4C(F)(F)F)cnc23)ccc1C(=O)NCCCNC(=O)[C@@H]1CCCN1 [Example 789, (S)-N-(3-(4-((3-(1-(2-amino-2-oxoethyl)-3-(trifluoromethyl)-1H-pyrazol-4-yl)imidazo [1,2-a]pyrazin-8-yl)amino)-2-ethylbenzamido)propyl)pyrrolidine-2-carboxamide]"
11,1.85 µM,"CCc1cc(Nc2nccn3c(-c4cn(CCF)nc4C(F)F)cnc23)ccc1C(=O)N1CCN(C(=O)C2(O)CCNCC2)CC1 [Example 791, (4-(4-((3-(3-(difluoromethyl)-1-(2-fluoroethyl)-1H-pyrazol-4-yl)imidazo[1,2-a]pyrazin-8-yl)amino)-2-ethylbenzoyl)piperazin-1-yl)(4-hydroxypiperidin-4-yl)methanone]"
12,1.92 µM,"CCc1cc(Nc2nccn3c(-c4cn(CC#N)nc4C(F)F)cnc23)ccc1C(=O)N1CCN(C(=O)C2CCNCC2)CC1 [Example 792, 2-(3-(difluoromethyl)-4-(8-((3-ethyl-4-(4-(piperidine-4-carbonyl)piperazine-1-carbonyl)phenyl)amino)imidazo[1,2-a]pyrazin-3-yl)-1H-pyrazol-1-yl)acetonitrile]"
13,1.93 µM,"C#CCn1cc(-c2cnc3c(Nc4ccc(C(=O)N5CCN(C(=O)CN)CC5)c(CC)c4)nccn23)c(C(F)F)n1 [Example 793, 2-amino-1-(4-(4-((3-(3-(difluoromethyl)-1-(prop-2-yn-1-yl)-1H-pyrazol-4-yl)imidazo[1,2-a]pyrazin-8-yl)amino)-2-ethylbenzoyl)piperazin-1-yl)ethan-1-one]"
14,2.23 µM,"CCc1cc(Nc2nccn3c(-c4cn(CCF)nc4C(F)F)cnc23)ccc1C(=O)N1CCN(C(=O)[C@@H]2C[C@@H](O)CN2)CC1 [Example 795, (4-(4-((3-(3-(difluoromethyl)-1-(2-fluoroethyl)-1H-pyrazol-4-yl)imidazo[1,2-a]pyrazin-8-yl)amino)-2-ethylbenzoyl)piperazin-1-yl)((2S,4R)-4-hydroxypyrrolidin-2-yl)methanone]"
15,2.25 µM,"CCc1cc(Nc2nccn3c(-c4cn(CCF)nc4C(F)F)cnc23)ccc1C(=O)N1CCN(C(=O)[C@@H](C)N)CC1 [Example 796, (R)-2-amino-1-(4-(4-((3-(3-(difluoromethyl)-1-(2-fluoroethyl)-1H-pyrazol-4-yl)imidazo[1,2-a]pyrazin-8-yl)amino)-2-ethylbenzoyl)piperazin-1-yl)propan-1-one]"
16,2.36 µM,"CCc1cc(Nc2nccn3c(-c4cn(CC#N)nc4C(F)F)cnc23)ccc1C(=O)N1CCN(C(=O)[C@H](N)C(C)C)CC1 [Example 797, 2-(4-(8-((4-(4-(D-valyl)piperazine-1-carbonyl)-3-ethylphenyl)amino)imidazo[1,2-a]pyrazin-3-yl)-3-(difluoromethyl)-1H-pyrazol-1-yl)acetonitrile]"
17,2.36 µM,"CCc1cc(Nc2nccn3c(-c4cn(COC)nc4C(F)F)cnc23)ccc1C(=O)N1CCN(C(=O)C2CC(O)CN2)CC1 (stereo not drawn) [Example 798, (4-(4-((3-(3-(difluoromethyl)-1-(methoxymethyl)-1H-pyrazol-4-yl)imidazo[1,2-a]pyrazin-8-yl)amino)-2-ethylbenzoyl)piperazin-1-yl)(4-hydroxypyrrolidin-2-yl)methanone]"
18,2.78 µM,"CCc1cc(Nc2nccn3c(-c4cn(CC#N)nc4C(F)F)cnc23)ccc1C(=O)N1CCN(C(=O)[C@H]2C[C@H](N)C2)CC1 [Example 800, 2-(4-(8-((4-(4-((1r,3r)-3-aminocyclobutane-1-carbonyl)piperazine-1-carbonyl)-3-ethylphenyl)amino)imidazo[1,2-a]pyrazin-3-yl)-3-(difluoromethyl)-1H-pyrazol-1-yl)acetonitrile]"
19,3 µM,"CCc1cc(Nc2nccn3c(-c4cn(COC)nc4C(F)F)cnc23)ccc1C(=O)N1CCNCC1 [Example 801, (4-((3-(3-(difluoromethyl)-1-(methoxymethyl)-1H-pyrazol-4-yl)imidazo[1,2-a]pyrazin-8-yl)amino)-2-ethylphenyl) (piperazin-1-yl)methanone]"
